How the values were obtained:
[1] = system: subjects with AD or bvFTD; design: method as in Developmental Safety Update Report #3; conditions: 1713 subjects randomized to LMTM (or matching placebo), blinded, as of 14 October 2014 ref Developmental Safety Update Report #3; cited from earlier work
[2] = system: bvFTD patients; assay: UPDRS Part III motor safety outcome, 52-week Phase III trial; format: in vivo, human
Description: The primary analyses were specified as a mixed model, repeated-measures analysis with an unstructured covariance matrix and no imputation for missing data. The model included visit (three levels corresponding to assessments at weeks 16, 32, and 52), treatment group (two levels, 4 mg or 100 mg twice a day), a visit by treatment group interaction term, use of AD-labelled medications (two levels, using or not using), geographic region (three levels: North America, Asia/Australia, Europe), and baseline value of the variable analyzed. The individual comparisons were implemented through contrasts. The Bonferroni-Holm correction was used to take account of multiplicity arising from alternative co-primary outcomes (FAQ and whole brain atrophy). We used the same method for all secondary analyses in predefined gated sequences such that no further adjustment of alpha (0.05) was needed.
Blood samples for assessment of parent MT, N-desmethyl MT, and total MT (sum of parent MT and a labile LMT conjugate), were collected from each patient on the first treatment visit (two samples: pre-dose and approximately 3.5 h after the dose) and at each subsequent on-treatment visit. […] MT levels in plasma were measured using liquid chromatography-tandem mass spectrometry assay. […] Model development and estimation of steady state maximum plasma concentration (Cmax,ss) were determined independently by the Institute of Clinical Pharmacodynamics (ICPD, NY, USA). Cmax,ss estimates using a model validated in Phase I studies were based on in-clinic plasma concentration data obtained on Day 1 when the dose-sampling interval was accurately recorded. […] Change in ACE-R, ACE-III, FAQ, MMSE, Modified-CGIC, FRS, whole brain volume (WBV), lateral ventricular volume (LVV), and frontotemporal volume (FTV), as well as UPDRS Part III, were expressed as a function of Cmax,ss estimates grouped into four groups described in the results section. […]

[3] = system: bvFTD patients; assay: Functional Activities Questionnaire (FAQ), 52-week Phase III trial; format: in vivo, human
Description: The study was designed as a 52-week Phase III, randomized, controlled, double-blind, parallel-group trial conducted between May 2013 and February 2016 at 70 sites in Canada, United States, Australia, Asia, and Europe. Eligible patients had to be younger than 80 years of age with a diagnosis of bvFTD according to criteria revised by the International bvFTD Criteria Consortium [[1, 50]], with Mini-Mental Status Examination (MMSE) score greater than or equal to 20 at screening. In order to limit inclusion of bvFTD phenocopy cases, there was an additional requirement that patients had to meet the criterion of having definite brain atrophy in frontal and/or temporal lobes scoring 2 or more on a scale previously developed by Kipps et al.. Concomitant use of acetylcholinesterase inhibitors (AChEIs) or memantine (or both) was permitted provided this was at a stable dose for at least 18 weeks before randomization to minimize any potential early symptomatic effects of these treatments. Concomitant use of antidepressant, antipsychotic (except clozapine or olanzapine), and sedative medications was also permitted at stable doses where clinically feasible. Each patient had one or more study partners participate with them in the trial as informants. […] A detailed list of inclusion and exclusion criteria is in the protocol provided in the Supplementary Material. […]
The two doses were provided in identical blister packages as visually identical oral tablets to be taken for up to 52 weeks. […] Other outcomes included: Modified Alzheimer’s Disease Cooperative Study – Clinical Global Impression of Change (Modified-CGIC) determined by a third independent rater; Frontotemporal Dementia Rating Scale (FRS); MMSE (from MMSE items incorporated into ACE-R); Addenbrookes Cognitive Examination – III (a revised version of ACE-R which excludes MMSE items subject to copyright restrictions); change in brain volume measured by MRI in frontal and temporal lobes (FTV) and lateral ventricles (LVV); and the effect of hydromethylthionine in patients with known genetic mutations associated with bvFTD. […]

[4] = system: bvFTD patients; assay: Frontotemporal volume (FTV) change by MRI (Tensor-Based Morphometry); format: in vivo, human; conditions: Patients receiving 8 mg/day, vs Cmax,ss ≤[…], 52 weeks
Description: The two doses were provided in identical blister packages as visually identical oral tablets to be taken for up to 52 weeks. The primary outcome was the Addenbrookes Cognitive Examination – Revised (ACE-R). The Functional Activities Questionnaire (FAQ) and reduction in progression of whole brain atrophy were alternative co-primary outcomes. Other outcomes included: Modified Alzheimer’s Disease Cooperative Study – Clinical Global Impression of Change (Modified-CGIC) determined by a third independent rater; Frontotemporal Dementia Rating Scale (FRS); MMSE (from MMSE items incorporated into ACE-R); Addenbrookes Cognitive Examination – III (a revised version of ACE-R which excludes MMSE items subject to copyright restrictions); change in brain volume measured by MRI in frontal and temporal lobes (FTV) and lateral ventricles (LVV); and the effect of hydromethylthionine in patients with known genetic mutations associated with bvFTD. Blood was collected prospectively for the purpose of population PK analyses.
MRI scans were obtained at screening and weeks 16, 32, and 52. The acquisition protocol was standardized across sites and all data were centrally collected, quality-controlled, and analyzed by the imaging core laboratory (Bioclinica). MRI data included a 3D sagittal T1-weighted sequence (using parameters compatible with the ADNI protocol) which was used for all volumetric analyses. […]

[5] = 8 mg/day, plasma levels above vs below […] threshold

For `CN(C)c1ccc2c(c1)Sc1cc(N(C)C)ccc1N2` [hydromethylthionine, leuco-methylthioninium bis(hydromethanesulphonate)], the “cases of possible serotonin toxicity reported as AEs” value [1] is given as 2, the “UPDRS – part III: Decline±SEM for LMTM 8 mg/day group” value ([2]; 8 mg/day (n = 110), modeled change from baseline at 52 weeks) is given as 3.90±1.06 and the “reduction in decline, UPDRS” value [2, 5] is given as 75%. For the same compound, the “UPDRS – part III: Difference±SEM from LMTM 8 mg/day for 200 mg/day” value ([2]; 200 mg/day (n = 104) vs 8 mg/day, 52 weeks) was “–1.40±1.61”, the “FAQ: Decline±SEM for LMTM 8 mg/day group” value ([3]; 8 mg/day (n = 110), modeled change from baseline at 52 weeks, MITT) was 5.51±0.55 and the “reduction in decline on the FAQ scale” value [3, 5] was 46%. The “FAQ: Difference±SEM from LMTM 8 mg/day for 200 mg/day” value ([3]; 200 mg/day (n = 104) vs 8 mg/day, 52 weeks, MITT) was “–0.39±0.84” and the “FTV: Difference±SEM for Cmax,ss > […]” value [4] was 0.72±0.27 cm^3.

From article PMC7306898, “Concentration-Dependent Activity of Hydromethylthionine on Clinical Decline and Brain Atrophy in a Randomized Controlled Trial in Behavioral Variant Frontotemporal Dementia” (Journal of Alzheimer's Disease, 2020)
